Test results as given in US11109593B2, “Isoxazolin-5-one derivative and herbicide containing same as active ingredient” (HOKKO CHEMICAL INDUSTRY CO., LTD., priority 2017, dated 2021).

Tests used:
Type in all cases: in vivo
[1] = test system: broad leaf weeds (Lindernia pyxidaria and Monochoria vaginalis); experiment: Test Example 2: herbicidal effect test by treatment during growing period in paddy rice cultivation (seven days after seeding); details: 120 g/10a active ingredient, assessed 14 days after treatment, dry weight vs untreated area
How it was run: (§1)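 Post-emergence paddy water application: compounds were formulated as emulsions, diluted and dropped into flooded pots seven days after sowing at a rate equivalent to 120 g per 10 ares. Efficacy was taken as dry-weight reduction relative to untreated controls after 14 days.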

Echinochloa crus-galli [2] = experiment: as above; details: 120 g/10a active ingredient, assessed 14 days after treatment, dry weight vs untreated area
How it was run: as §1

Scirpus juncoides [3] = experiment: as above; details: 120 g/10a active ingredient, assessed 14 days after treatment, dry weight vs untreated area
How it was run: as §1

Chenopodium album [4] = experiment: Test Example 3: herbicidal effect test by treatment of dry field farming soil (one day after seeding); details: 120 g/10a active ingredient, evaluated 14 days after treatment
How it was run: (§2)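 Dry-field alluvium pots; weed seeds incorporated in top 1 cm; soil spray of diluted emulsion 1 d after seeding, 120 g a.i./10 a in 100 L/10 a. Readout: % reduction of dry weight vs untreated, day 14, duplicates.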

Amaranthus viridis [5] = experiment: as above; details: 120 g/10a active ingredient, evaluated 14 days after treatment
How it was run: as §2

Echinochloa crus-galli [6] = experiment: as above; details: 120 g/10a active ingredient, evaluated 14 days after treatment
How it was run: as §2

southern crabgrass [7] = experiment: as above; details: 120 g/10a active ingredient, evaluated 14 days after treatment
How it was run: as §2

[8] = test system: broad leaf weeds (Lindernia pyxidaria and Monochoria vaginalis); experiment: Test Example 1: herbicidal effect test by treatment of rice paddy soil (immediately after seeding); details: 120 g/10a active ingredient, dry weight vs untreated area, 14 days after treatment
How it was run: (§3)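 Puddled, fertilized (N:P:K=17:17:17) paddy soil in Wagner pots; seeds sown 0–1 cm deep, flooded to about 3 cm. Emulsifiable formulations diluted in water and dropped into the water immediately after seeding at 120 g active ingredient per 10 ares; greenhouse. Herbicidal rate from dry weight vs untreated at 14 days.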

Echinochloa crus-galli [9] = experiment: as above; details: 120 g/10a active ingredient, dry weight vs untreated area, 14 days after treatment
How it was run: as §3

Scirpus juncoides [10] = experiment: as above; details: 120 g/10a active ingredient, dry weight vs untreated area, 14 days after treatment
How it was run: as §3

Chenopodium album [11] = experiment: Test Example 4: herbicidal effect test by treatment of leave and stem in dry field farming (seven days after seeding); details: 120 g/10a active ingredient; emulsion sprayed seven days after seeding; evaluated 14 days after treatment
How it was run: (§4)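 Weeds were seeded at 20 seeds per species into the top 1 cm of alluvial upland soil in pots, then sprayed 7 days after seeding with water-diluted emulsifiable concentrate at 100 L/10 a, giving 120 g active ingredient/10 a. Duplicate pots; herbicidal rate (%) was 14 days post-treatment, from dry weight versus untreated.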

Amaranthus viridis [12] = experiment: as above; details: 120 g/10a active ingredient; emulsion sprayed seven days after seeding; evaluated 14 days after treatment
How it was run: as §4

Echinochloa crus-galli [13] = experiment: as above; details: 120 g/10a active ingredient; emulsion sprayed seven days after seeding; evaluated 14 days after treatment
How it was run: as §4

southern crabgrass [14] = experiment: as above; details: 120 g/10a active ingredient; emulsion sprayed seven days after seeding; evaluated 14 days after treatment
How it was run: as §4

Structure (SMILES) | Herbicidal rate (%) Lindernia pyxidaria [1] | Herbicidal rate (%) Monochoria vaginalis [1] | Herbicidal rate (%) Echinochloa crus-galli (Echinochloa crus-galli [2]) | Herbicidal rate (%) Scirpus juncoides (Scirpus juncoides [3]) | herbicidal rate, Chenopodium album (Chenopodium album [4]) | herbicidal rate, Amaranthus viridis (Amaranthus viridis [5]) | herbicidal rate, Echinochloa crus-galli (Echinochloa crus-galli [6]) | herbicidal rate, southern crabgrass (southern crabgrass [7]) | Herbicidal rate (%) Lindernia pyxidaria [8] | Herbicidal rate (%) Monochoria vaginalis [8] | Herbicidal rate (%) Echinochloa crus-galli (Echinochloa crus-galli [9]) | Herbicidal rate (%) Scirpus juncoides (Scirpus juncoides [10]) | herbicidal effect (herbicidal rate), Chenopodium album (Chenopodium album [11]) | herbicidal effect (herbicidal rate), Amaranthus viridis (Amaranthus viridis [12]) | herbicidal effect (herbicidal rate), Echinochloa crus-galli (Echinochloa crus-galli [13]) | herbicidal effect (herbicidal rate), southern crabgrass (southern crabgrass [14])
Cc1c(Cc2ccccc2N(C(=O)C2CC2)S(=O)(=O)C(F)(F)F)c(=O)on1CC(C)(C)C [Compound 1-407] | 90% | 90% | 90% | 90% | 90% | 90% | 90% | 90% | 90% | 90% | 90% | 90% | 40% | 40% | 90% | 90%
CCCC(C)n1oc(=O)c(Cc2ccccc2N(C(=O)C2CC2)S(=O)(=O)C(F)(F)F)c1C (centres unmarked) [Compound 1-408] | 70% | 60% | 90% | 90% | 60% | 80% | 100% | 100% | 80% | 80% | 100% | 90% | 70% | 40% | 90% | 90%
COCC(C)n1oc(=O)c(Cc2ccccc2N(C(=O)C2CC2)S(=O)(=O)C(F)(F)F)c1C (centres unmarked) [Compound 1-412] | 90% | 90% | 90% | 90% | 90% | 90% | 90% | 90% | 90% | 90% | 90% | 90% | 40% | 40% | 90% | 90%
CSCCn1oc(=O)c(Cc2ccccc2N(C(=O)C2CC2)S(=O)(=O)C(F)(F)F)c1C [Compound 1-413] | 90% | 90% | 90% | 90% | 90% | 90% | 90% | 90% | 90% | 90% | 90% | 90% | 40% | 40% | 90% | 90%
Cc1c(Cc2ccccc2N(C(=O)C2CC2)S(=O)(=O)C(F)(F)F)c(=O)on1C(C)c1ccccc1 (centres unmarked) [Compound 1-416] | 90% | 90% | 90% | 90% | 90% | 90% | 90% | 90% | 90% | 90% | 90% | 90% | 40% | 40% | 90% | 90%
Cc1c(Cc2ccccc2N(C(=O)C2CCCCC2)S(=O)(=O)C(F)(F)F)c(=O)on1C(C)(C)C [Compound 1-431] | 90% | 90% | 90% | 90% | 90% | 90% | 90% | 90% | 90% | 90% | 90% | 90% | 40% | 40% | 90% | 90%
CCC(C)n1oc(=O)c(Cc2ccccc2N(C(=O)C2CCCCC2)S(=O)(=O)C(F)(F)F)c1C (centres unmarked) [Compound 1-432] | 90% | 90% | 90% | 90% | 90% | 90% | 90% | 90% | 90% | 90% | 90% | 90% | 40% | 40% | 90% | 90%
COCC(C)n1oc(=O)c(Cc2ccccc2N(C(=O)C2CCCCC2)S(=O)(=O)C(F)(F)F)c1C (centres unmarked) [Compound 1-434] | 90% | 90% | 90% | 90% | 90% | 90% | 90% | 90% | 90% | 90% | 90% | 90% | 40% | 40% | 90% | 90%
